Earlier results as cited in patent US10179134B2, “Polymeric nanoparticles in a thermosensitive gel for coital-independent vaginal prophylaxis of HIV” (Creighton University, priority 2012, dated 2019).

System: HeLa cells

O=C1Nc2ccc(Cl)cc2[C@@](C#CC2CC2)(C(F)(F)F)O1 [efavirenz]
concentration above which toxic to the HeLa cells: higher than 25 μM
